# From ChEMBL document CHEMBL3507680, “University of Dundee, Gates Library screen for HepG2 cell viability”
# Assay: Human HepG2 cell viability assay in 384 well format
# Format: toxicity, cell-based
# Design: dose 125 nL, time 70.5 hour; concentration not given beside the values
# Conditions: HepG2 cells, read-out: Inhibition
row,SMILES,cytotoxicity at 70.5 h
1,CCn1cc(Br)c(C(=O)NCc2cccnc2)n1,-7.68%
2,CSc1ccc(C2CC(=O)Nc3c2c(=O)[nH]n3C(C)C)cc1 (centres undefined),-9.28%
3,CCN(CC)C(=O)Cn1cc(-c2nc(C(C)C)no2)nn1,-9.42%
4,CCn1cnnc1CNC(=O)c1cc(Cl)ccc1F,-11.5%
5,Cc1nc(CN(C)C2CCN(Cc3ccc4c(c3)OCCO4)C2)no1 (centres undefined),-2.2%
6,O=C(CC1CCC2(CC1)CCN(Cc1cccnc1)CC2)N1CC=CC1,-8.62%
7,COC(=O)c1cccn1C1CCN(Cc2cnc3ccccn23)CC1,10.2%
8,Cc1cccc(OCCNC(=O)CN2CCCC2c2noc(C)n2)c1 (centres undefined),-4.91%
9,COCC1CCN(S(=O)(=O)c2ccc(C(=O)NCC(F)F)cc2)C1 (centres undefined),9.26%
10,COc1cc(C(=O)NCCCc2ccccc2)on1,-1.09%
11,Cc1ccc(C2CN(C(=O)c3c(C)cc(C)[nH]c3=O)CCO2)c(C)c1 (centres undefined),9.82%
12,COC(=O)Nc1nc2c(s1)CN(C(=O)NCc1cccs1)CC2,-7.97%
13,COc1ccc(-c2nc(C(=O)NCC3CCOC3)cs2)cc1OC (centres undefined),-7.66%
14,COc1ccc(S(=O)(=O)NCc2cccnc2N(C)C)cc1,-5%
15,CNC(=O)CN1CCN(C(=O)Nc2ccc(Cl)cc2F)CC1,-1.72%
16,CN(CCCO)C(=O)c1ccc2c(c1)nc(N1CC[C@H](O)C1)n2C,-7.06%
17,COC(=O)N1CC[C@@]2(O)CCCC[C@H]2[C@@H]1c1ccc2c(c1)OCO2,-4.3%
18,COCCOCC(=O)Nc1ccccc1F,-6.23%
19,CCc1ncc2c(n1)CN(CC(=O)NC1CCCCNC1=O)CC2 (centres undefined),1.9%
20,CCNC(=O)COc1cc(CC)c2c(C)nn(-c3ccc(C)cc3)c2n1,-3.18%
21,CC(=O)N(C)C(c1cccc(F)c1)c1ccccn1 (centres undefined),8.62%
22,O=C(N1CCCC1)N1CC[C@H]2OCC[C@@]2(COc2ncccc2F)C1,-1.3%

row,SMILES,cytotoxicity at 70.5 h
1,Cc1cnn(CC(C)NCc2cccc(C#N)c2)c1 (centres undefined),2.17%
2,N[C@@H]1CCN(Cc2ccc(-c3nc(-c4cccnc4)cc(=O)[nH]3)cc2)C1,-10.8%
3,O=C(NCCN1CCOCC1)c1ccc(-c2ccc(F)cc2)nc1O,-3.89%
4,Clc1ccccc1CN1CCCC(c2nnc(-c3cnccn3)o2)C1 (centres undefined),-5.49%
5,O=C(O)c1ccccc1CN1CCOC(CCc2ccncn2)C1 (centres undefined),-4.46%
6,Cc1nccn1-c1cc(CNC(=O)COCC2CC2)ccn1,-6.02%
7,N#CC1CCCN(C(=O)Cn2ncc(N3CCCC3)cc2=O)C1 (centres undefined),-7.57%
8,C=C(C)CN(CC)C(=O)c1cc(F)ccc1NS(C)(=O)=O,-0.0565%
9,CC(C)N1CCC(CC(=O)NC(C(=O)O)c2cc(F)ccc2F)CC1 (centres undefined),-16.6%
10,CS(=O)(=O)N1C[C@@H]2CC[C@H](C1)N(CCC(=O)NCc1ccco1)C2,4.49%
11,COCC(=O)N1CCC2(CC1)c1ccccc1[C@@H](N1CCSCC1)[C@@H]2O,4.64%
12,CCN(Cc1noc(C)n1)C(=O)CC1C(=O)NCCN1CC(C)(C)C (centres undefined),9.61%
13,N#Cc1ccc(OC[C@]23COC[C@H]2CN(Cc2ccccn2)C3)nc1,0.477%
14,CCc1ccsc1C(=O)N1CCN(CC(C)(C)O)CC1,-5.61%
15,CC(C)NC(=O)Nc1ccc(-c2nc(C(C)C)no2)cc1,-8.44%
16,CN1CCc2nc(C3CCCN(C(=O)CC(C)(C)C)C3)ncc2C1 (centres undefined),-6.36%
17,O=C1CC2(CCCCC2)C(=O)N1CC(O)COCc1ccccc1F (centres undefined),-4.1%
18,Cc1ccc(CCCC(=O)N2CCCC(CS(N)(=O)=O)C2)s1 (centres undefined),-5.56%
19,CCn1cc(CN2CCCn3nc(CNC(=O)N(C)C)cc3C2)cn1,-7.73%
20,O=C1CCCN1Cc1nnc2n1CCN(Cc1ccccn1)CC2,-7.47%
21,CCN1CCC(NC(=O)CN2CC(n3nc(C)cc3C)C2)CC1,-6.85%
22,CCN(CC)C1(Cc2cc(-c3ccccn3)on2)COC1,-4.45%
